Experimental data published in ChEMBL document CHEMBL4184118, “Carbazole-containing amides and ureas: Discovery of cryptochrome modulators as antihyperglycemic agents” (Bioorg Med Chem Lett, 2018).
Values after ≈ are worked out from the molar mass of the structure shown.

target: T1, CRY2/PER2 (Homo sapiens, UniProt O15055+Q49AN0); assay: Modulation activity at CRY2/PER2 in human U2OS cells harboring per2-dLuc assessed as activation of per2 activity measured every 100 mins for 5 days by luciferase reporter gene assay; type: cell-based; conditions: not given
T1 sequence (O15055 whole entry): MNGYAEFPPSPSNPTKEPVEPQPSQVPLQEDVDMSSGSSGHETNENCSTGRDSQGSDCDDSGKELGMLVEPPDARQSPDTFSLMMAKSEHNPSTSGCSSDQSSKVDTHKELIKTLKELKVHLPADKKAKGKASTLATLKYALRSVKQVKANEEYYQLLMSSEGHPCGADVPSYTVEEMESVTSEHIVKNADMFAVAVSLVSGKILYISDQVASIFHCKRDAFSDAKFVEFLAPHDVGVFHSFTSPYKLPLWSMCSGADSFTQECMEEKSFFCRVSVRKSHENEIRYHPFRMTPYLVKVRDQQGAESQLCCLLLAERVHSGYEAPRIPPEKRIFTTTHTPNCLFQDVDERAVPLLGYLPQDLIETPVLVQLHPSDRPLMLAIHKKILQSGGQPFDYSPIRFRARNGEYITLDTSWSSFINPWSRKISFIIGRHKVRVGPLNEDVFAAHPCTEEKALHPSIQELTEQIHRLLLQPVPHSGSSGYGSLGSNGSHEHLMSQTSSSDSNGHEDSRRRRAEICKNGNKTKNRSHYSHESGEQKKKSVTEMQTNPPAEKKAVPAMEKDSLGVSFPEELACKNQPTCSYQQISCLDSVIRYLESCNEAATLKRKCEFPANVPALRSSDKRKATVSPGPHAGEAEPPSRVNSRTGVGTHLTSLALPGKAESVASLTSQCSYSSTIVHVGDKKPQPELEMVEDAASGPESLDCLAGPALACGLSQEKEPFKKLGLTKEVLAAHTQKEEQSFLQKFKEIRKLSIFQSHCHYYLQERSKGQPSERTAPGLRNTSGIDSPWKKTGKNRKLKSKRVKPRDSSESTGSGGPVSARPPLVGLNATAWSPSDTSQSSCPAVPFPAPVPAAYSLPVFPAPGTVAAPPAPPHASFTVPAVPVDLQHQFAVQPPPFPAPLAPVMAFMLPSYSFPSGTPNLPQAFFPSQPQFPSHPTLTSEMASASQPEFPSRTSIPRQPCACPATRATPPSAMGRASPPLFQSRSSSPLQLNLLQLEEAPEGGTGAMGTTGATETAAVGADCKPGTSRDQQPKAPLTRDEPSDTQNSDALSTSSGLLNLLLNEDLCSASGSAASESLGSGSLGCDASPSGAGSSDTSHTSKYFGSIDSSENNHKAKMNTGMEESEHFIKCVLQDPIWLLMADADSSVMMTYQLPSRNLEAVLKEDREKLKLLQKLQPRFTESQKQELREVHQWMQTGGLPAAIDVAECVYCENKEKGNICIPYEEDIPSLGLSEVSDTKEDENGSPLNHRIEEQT
T1 sequence (Q49AN0 whole entry): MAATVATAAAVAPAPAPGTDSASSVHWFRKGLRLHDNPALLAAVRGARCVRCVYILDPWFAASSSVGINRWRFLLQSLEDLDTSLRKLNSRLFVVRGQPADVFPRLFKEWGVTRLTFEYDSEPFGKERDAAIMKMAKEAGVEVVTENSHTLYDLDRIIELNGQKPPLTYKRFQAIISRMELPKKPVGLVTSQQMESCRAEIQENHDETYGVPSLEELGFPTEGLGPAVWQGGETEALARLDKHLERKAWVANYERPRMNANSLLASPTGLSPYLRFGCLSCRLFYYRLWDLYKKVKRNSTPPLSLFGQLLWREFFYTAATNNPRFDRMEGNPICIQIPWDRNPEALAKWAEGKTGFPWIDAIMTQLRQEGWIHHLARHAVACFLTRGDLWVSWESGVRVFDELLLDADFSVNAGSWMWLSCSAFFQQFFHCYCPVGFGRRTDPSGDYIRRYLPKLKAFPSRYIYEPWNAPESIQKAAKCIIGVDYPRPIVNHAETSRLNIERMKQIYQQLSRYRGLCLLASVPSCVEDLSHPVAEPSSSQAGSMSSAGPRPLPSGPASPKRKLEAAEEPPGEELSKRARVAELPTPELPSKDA

Question: Which EC50 does the source give for O=C1C(c2ccccc2)CCN1CC(O)Cn1c2ccc(F)cc2c2cc(F)ccc21 (stereo unspecified) here?
Answer: The EC50 was 0.487 µM.

Question: With CC1CCC(=O)N1CC(O)Cn1c2ccc(F)cc2c2cc(F)ccc21 (stereo unspecified) as the compound, how does the EC50 read?
Answer: Its EC50 is 0.199 µM.

Question: Which EC50 does the source give for CC(C)C1CCCN(CC(O)Cn2c3ccc(F)cc3c3cc(F)ccc32)C1=O (stereo unspecified) here?
Answer: Its EC50 is 0.079 µM.

Question: With O=C1Cc2ccccc2CN1CC(O)Cn1c2ccc(F)cc2c2cc(F)ccc21 (stereo unspecified) as the compound, how does the EC50 read?
Answer: Its EC50 is 15.2 µM.

Question: Which EC50 does the source give for CC(C)N1CCN(CC(O)Cn2c3ccc(F)cc3c3cc(F)ccc32)C1=O (stereo unspecified) here?
Answer: Its EC50 is 0.605 µM.

Question: For CC1CCN(CC(O)Cn2c3ccc(F)cc3c3cc(F)ccc32)C1=O (stereo unspecified), which EC50 is on record?
Answer: The EC50 was 0.424 µM.

Question: Which EC50 does the source give for O=C1CCC2CC2N1CC(O)Cn1c2ccc(F)cc2c2cc(F)ccc21 (stereo unspecified) here?
Answer: Its EC50 is 0.565 µM.

Question: For CC1CCCC(=O)N1CC(O)Cn1c2ccc(F)cc2c2cc(F)ccc21 (stereo unspecified), which EC50 is on record?
Answer: The EC50 was 0.541 µM.

Question: With COC1CNC(=O)N(CC(O)Cn2c3ccc(F)cc3c3cc(F)ccc32)C1 (stereo unspecified) as the compound, how does the EC50 read?
Answer: Its EC50 is 1.12 µM.

Question: With CC1CNC(=O)N1CC(O)Cn1c2ccc(F)cc2c2cc(F)ccc21 (stereo unspecified) as the compound, how does the EC50 read?
Answer: The EC50 was 1.19 µM.

Question: With CC1CNC(=O)N(CC(O)Cn2c3ccc(F)cc3c3cc(F)ccc32)C1 (stereo unspecified) as the compound, how does the EC50 read?
Answer: The EC50 was 0.833 µM.

Question: For CC1CCN(CC(O)Cn2c3ccc(F)cc3c3cc(F)ccc32)C(=O)N1 (stereo unspecified), which EC50 is on record?
Answer: The EC50 was 0.417 µM.

Question: With CC1CCCN(CC(O)Cn2c3ccc(F)cc3c3cc(F)ccc32)C1=O (stereo unspecified) as the compound, how does the EC50 read?
Answer: Its EC50 is 1.15 µM.

Question: Which EC50 does the source give for O=C1COCCN1CC(O)Cn1c2ccc(F)cc2c2cc(F)ccc21 (stereo unspecified) here?
Answer: Its EC50 is 0.447 µM.

Question: For COC1CCCN(CC(O)Cn2c3ccc(F)cc3c3cc(F)ccc32)C1=O (stereo unspecified), which EC50 is on record?
Answer: The EC50 was 0.33 µM.

Question: Which EC50 does the source give for O=C1C2CC2CCN1CC(O)Cn1c2ccc(F)cc2c2cc(F)ccc21 (stereo unspecified) here?
Answer: The EC50 was 0.167 µM.

Question: With CC(C)C1CCN(CC(O)Cn2c3ccc(F)cc3c3cc(F)ccc32)C1=O (stereo unspecified) as the compound, how does the EC50 read?
Answer: The EC50 was 0.261 µM.

Question: For CS(=O)(=O)N(Cc1ccco1)CC(O)Cn1c2ccccc2c2ccccc21 (stereo unspecified), which EC50 is on record?
Answer: The EC50 was 0.87 µM.

Question: With CCC1CCN(CC(O)Cn2c3ccc(F)cc3c3cc(F)ccc32)C1=O (stereo unspecified) as the compound, how does the EC50 read?
Answer: Its EC50 is 0.417 µM.

Question: Which EC50 does the source give for O=C1Cc2ccccc2N1CC(O)Cn1c2ccc(F)cc2c2cc(F)ccc21 (stereo unspecified) here?
Answer: The EC50 was 3.73 µM.

Question: For O=C1c2ccccc2CN1CC(O)Cn1c2ccc(F)cc2c2cc(F)ccc21 (stereo unspecified), which EC50 is on record?
Answer: The EC50 was 1.49 µM.

Question: With CCC1CCCN(CC(O)Cn2c3ccc(F)cc3c3cc(F)ccc32)C1=O (stereo unspecified) as the compound, how does the EC50 read?
Answer: Its EC50 is 0.332 µM.

Question: For CCN1CCN(CC(O)Cn2c3ccc(F)cc3c3cc(F)ccc32)C1=O (stereo unspecified), which EC50 is on record?
Answer: Its EC50 is 1.06 µM.

Question: For CCN1CCCN(CC(O)Cn2c3ccc(F)cc3c3cc(F)ccc32)C1=O (stereo unspecified), which EC50 is on record?
Answer: Its EC50 is 0.497 µM.

Question: Which EC50 does the source give for CN1CCCN(CC(O)Cn2c3ccc(F)cc3c3cc(F)ccc32)C1=O (stereo unspecified) here?
Answer: Its EC50 is 0.719 µM.

Question: Which EC50 does the source give for CC(C)N1CCCN(CC(O)Cn2c3ccc(F)cc3c3cc(F)ccc32)C1=O (stereo unspecified) here?
Answer: Its EC50 is 0.62 µM.

test system: not listed separately; assay: Kinetic solubility in simulated gastric fluid; type: physicochemical; conditions: read-out: Kinetic_solubility

Question: For O=C1C(F)CCN1CC(O)Cn1c2ccc(F)cc2c2cc(F)ccc21 (stereo unspecified), which solubility kinetic is on record?
Answer: The solubility kinetic was 184 µM (≈ 66.7 µg/mL).

Question: With COC1CCCN(CC(O)Cn2c3ccc(F)cc3c3cc(F)ccc32)C1=O (stereo unspecified) as the compound, how does the solubility kinetic read?
Answer: Its solubility kinetic is 188 µM (≈ 72.9 µg/mL).

Question: For CN1CCCN(CC(O)Cn2c3ccc(F)cc3c3cc(F)ccc32)C1=O (stereo unspecified), which solubility kinetic is on record?
Answer: The solubility kinetic was 162 µM (≈ 60.4 µg/mL).

test system: not listed separately; assay: MRT in db/db mouse at 30 mg/kg, po qd after 1 to 24 hrs; type: ADME, organism-based; conditions: in vivo

Question: With O=C1C(F)CCN1CC(O)Cn1c2ccc(F)cc2c2cc(F)ccc21 (stereo unspecified) as the compound, how does the MRT read?
Answer: Its MRT is 3.27 h.

Question: Which MRT does the source give for COC1CCCN(CC(O)Cn2c3ccc(F)cc3c3cc(F)ccc32)C1=O (stereo unspecified) here?
Answer: Its MRT is 2.68 h.

Question: With CN1CCCN(CC(O)Cn2c3ccc(F)cc3c3cc(F)ccc32)C1=O (stereo unspecified) as the compound, how does the MRT read?
Answer: Its MRT is 3.51 h.

test system: not listed separately; assay: Half life in db/db mouse at 30 mg/kg, po qd; type: ADME, organism-based; conditions: in vivo

Question: With O=C1C(F)CCN1CC(O)Cn1c2ccc(F)cc2c2cc(F)ccc21 (stereo unspecified) as the compound, how does the half-life read?
Answer: The half-life was 2.97 h.

Question: For COC1CCCN(CC(O)Cn2c3ccc(F)cc3c3cc(F)ccc32)C1=O (stereo unspecified), which half-life is on record?
Answer: Its half-life is 2.16 h.

Question: For CN1CCCN(CC(O)Cn2c3ccc(F)cc3c3cc(F)ccc32)C1=O (stereo unspecified), which half-life is on record?
Answer: The half-life was 2.57 h.

test system: not listed separately; assay: Total Cmax in db/db mouse at 30 mg/kg, po qd after 1 to 24 hrs; type: ADME, organism-based; set-up: dose 30 mg/kg, route oral; conditions: in vivo

Question: For O=C1C(F)CCN1CC(O)Cn1c2ccc(F)cc2c2cc(F)ccc21 (stereo unspecified), which Cmax is on record?
Answer: The Cmax was 1.01 µM.

Question: Which Cmax does the source give for COC1CCCN(CC(O)Cn2c3ccc(F)cc3c3cc(F)ccc32)C1=O (stereo unspecified) here?
Answer: Its Cmax is 0.235 µM.

Question: With CN1CCCN(CC(O)Cn2c3ccc(F)cc3c3cc(F)ccc32)C1=O (stereo unspecified) as the compound, how does the Cmax read?
Answer: Its Cmax is 0.063 µM.

test system: Mus musculus; assay: Unbound Cmax in db/db mouse at 30 mg/kg, po qd after 1 to 24 hrs; type: ADME, organism-based; conditions: in vivo

Question: Which fCmax does the source give for O=C1C(F)CCN1CC(O)Cn1c2ccc(F)cc2c2cc(F)ccc21 (stereo unspecified) here?
Answer: The fCmax was 0.03 µM.

Question: With COC1CCCN(CC(O)Cn2c3ccc(F)cc3c3cc(F)ccc32)C1=O (stereo unspecified) as the compound, how does the fCmax read?
Answer: Its fCmax is 0.007 µM.

Question: With CN1CCCN(CC(O)Cn2c3ccc(F)cc3c3cc(F)ccc32)C1=O (stereo unspecified) as the compound, how does the fCmax read?
Answer: Its fCmax is 0.002 µM.
